Source: patent US9487813B2, “Antifungal target” (F2G LTD, priority 2009, dated 2016)

What was measured:
A. fumigatus PPTB = target: T1, A. fumigatus PPTB (Aspergillus fumigatus, UniProt Q4W9R0); assay: fluorescence polarisation PPTB assay / high-throughput screen (CoA-Bodipy TMR transfer to ACP); type: biochemical; settings: IC50 for CoA, assay carried out using unlabelled coenzyme A
T1 construct: NusA; His tag (vector-encoded, inferred from Ni-NTA purification); made in house; host or cells: E. coli BL21 (DE3)
T1 sequence (Q4W9R0 1-153): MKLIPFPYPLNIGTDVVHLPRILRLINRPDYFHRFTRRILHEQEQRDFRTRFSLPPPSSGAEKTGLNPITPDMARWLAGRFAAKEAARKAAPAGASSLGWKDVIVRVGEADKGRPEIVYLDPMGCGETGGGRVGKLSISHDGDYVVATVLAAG
Method: High-throughput fluorescent polarization screens for PPTB inhibitors were carried out in black, flat-bottom 384 well plates using the following equipment: Thermo Labsystems Multidrop 384 machine (Multidrop® 384) with dispensing cassette and plate adapter; Tecan Genesis Freedom and Tecan Te—Mo automated liquid handling robot with 235 μl tip head, plus appropriate PC/base unit/software; PerkinElmer Minitrak automated liquid handling robot with 235 μl tip head plus appropriate PC/base unit/software; and PerkinElmer Fusion-Alpha-FP HT plate reading spectrophotometer plus appropriate FP filters (Excitation filter 540 nm; Emission filter 580 nm, both filters with 20 nm bandwidth).
Buffer A: 62.5 mM Bis-Tris buffer (pH 6.75), 12.5 mM MgCl2. The final concentrations in the assay were 50 mM Bis-Tris and 10 mM MgCl2.
CoA-Bodipy TMR-ACP mix: 11.6 ml ACP (3.421 mg/ml) plus 1854.7 μl CoA-Bodipy TMR stock (see Section 3.2 above) was made up to 529.9 ml with Buffer A at 4° C.
PPTB enzyme: PPTB enzyme was typically used at 50 to 100 ng total protein/well; enzyme was used at a concentration that gave reaction linearity with respect to both time and protein concentration. This had to be determined for each enzyme batch. […]
Assays were carried out in black, flat-bottomed 384-well plates. […] The reaction was terminated by the addition of 25 μl Stop Reagent, after which plates were read in a spectrophotometer. […]

recombinant PPTB = recombinant PPTB (Aspergillus fumigatus, UniProt Q4W9R0); settings: in the presence of magnesium ions and CoA-Bodipy TMR
From the text: In the present work PPTB assays used a fluorescently-labelled coenzyme A molecule (CoA-Bodipy TMR), such that PPTB activity transferred the label onto the ACP. The PPTB reaction could therefore be followed by separating the products of the PPTB reaction on an SDS-PAGE gel and illuminating with UV light to see whether the ACP band had become fluorescent. For the high-throughput screen, the PPTB assays used a fluorescence polarisation approach. This measures changes in the orientation of plane-polarized light brought about by fluorophores that undergo significant molecular motion during their fluorescence lifetime. […] The reduction in rotation causes a reduction in the ability of the Bodipy TMR molecule to depolarise plane-polarised light, which can be measured.
Further experiments were carried out using fluorescence polarization to optimise the PPTB assay for high-throughput screening.

Compound	IC50 (A. fumigatus PPTB; plates read after 105 hours)	IC50 (A. fumigatus PPTB; plates read on day one)	effect on the labelling reaction of ACP (recombinant PPTB)
CC(C)(COP(=O)(O)OP(=O)(O)OC[C@H]1O[C@@H](n2cnc3c(N)ncnc32)[C@H](O)[C@@H]1OP(=O)(O)O)[C@@H](O)C(=O)NCCC(=O)NCCS [CoA, coenzyme A]	5.9 µM	6.02 µM	
O=C(O)CN(CCN(CC(=O)O)CC(=O)O)CC(=O)O [EDTA]			inhibited
